The target of assay [1] is T1, AChE (from human erythrocyte) (Homo sapiens, UniProt P22303).
T1 construct: AChE (EC 3.1.1.8, from human erythrocyte); purchased Sigma-Aldrich (St. Louis, MO, USA); host or cells: human erythrocyte
The assay can be described thus: biochemical. As to conditions: for AChE IR (%) inhibition ratio: at 50 μM; for IC50: mean ± SD of three separate experiments. Here is the method:
(§1) BChE (EC 3.1.1.8, from human serum), AChE (EC […]), butyrylthiocholine (BUC) iodide, and acetylthiocholine (ATC) iodide were purchased from Sigma-Aldrich (St. Louis, MO, USA). Enzyme was dissolved and pre-prepared at 2.0 U/mL. 10 μL of enzyme, 20 μL of 0.01 M 5,5′-dithiobis(2-nitrobenzoic acid), 10 μL of tested compound, and 40 μL of PBS were pre-incubated together for 5 min. Io initiate the reaction, 20 μL of 0.01 M BUC or ATC was added. The activity was determined by measuring the increase in absorbance at 410 nm at 37 °C in 2 min intervals using Tecan Spark multimode microplate reader (Mannedorf, Switzerland). The percentage of inhibition (I) was calculated according to the formula: I = (Ac − Ai)/Ac × 100%, with Ai and Ac representing the change in the absorbance in the presence of an inhibitor and without an inhibitor, respectively.

Assay [2] addresses T2, BChE (EC 3.1.1.8, from human serum) (Homo sapiens, UniProt P06276).
T2 construct: BChE (EC 3.1.1.8, from human serum); purchased Sigma-Aldrich (St. Louis, MO, USA); host or cells: human serum
The assay can be described thus: biochemical. As to conditions: for BChE IR (%) inhibition ratio: at 50 μM; for IC50: mean ± SD of three separate experiments. Here is the method:
as §1

Where “and” joins values, the source holds several entries; their conditions need not be identical. Equal entries are not always repeated. Where only a bound is given, the exact number is not on record here.

By IC50 is commonly meant the point on the concentration scale where inhibition reaches its midpoint.

T2 sequence (P06276 29-602): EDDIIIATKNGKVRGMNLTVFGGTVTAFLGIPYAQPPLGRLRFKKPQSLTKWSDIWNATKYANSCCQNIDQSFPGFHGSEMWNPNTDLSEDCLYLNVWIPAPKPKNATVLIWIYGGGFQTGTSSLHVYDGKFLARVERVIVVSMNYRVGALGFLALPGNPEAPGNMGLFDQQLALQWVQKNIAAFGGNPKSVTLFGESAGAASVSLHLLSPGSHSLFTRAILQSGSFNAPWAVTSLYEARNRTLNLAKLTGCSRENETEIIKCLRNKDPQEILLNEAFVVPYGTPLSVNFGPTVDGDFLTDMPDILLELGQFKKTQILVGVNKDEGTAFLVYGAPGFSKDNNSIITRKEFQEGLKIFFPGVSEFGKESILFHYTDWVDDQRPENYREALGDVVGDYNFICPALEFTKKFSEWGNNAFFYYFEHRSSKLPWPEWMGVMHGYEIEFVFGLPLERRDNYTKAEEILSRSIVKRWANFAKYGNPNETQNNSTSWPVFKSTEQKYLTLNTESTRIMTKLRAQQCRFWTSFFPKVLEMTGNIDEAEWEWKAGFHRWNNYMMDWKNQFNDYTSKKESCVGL
T1 sequence (P22303 other isoform, or with tags, fused parts or gaps): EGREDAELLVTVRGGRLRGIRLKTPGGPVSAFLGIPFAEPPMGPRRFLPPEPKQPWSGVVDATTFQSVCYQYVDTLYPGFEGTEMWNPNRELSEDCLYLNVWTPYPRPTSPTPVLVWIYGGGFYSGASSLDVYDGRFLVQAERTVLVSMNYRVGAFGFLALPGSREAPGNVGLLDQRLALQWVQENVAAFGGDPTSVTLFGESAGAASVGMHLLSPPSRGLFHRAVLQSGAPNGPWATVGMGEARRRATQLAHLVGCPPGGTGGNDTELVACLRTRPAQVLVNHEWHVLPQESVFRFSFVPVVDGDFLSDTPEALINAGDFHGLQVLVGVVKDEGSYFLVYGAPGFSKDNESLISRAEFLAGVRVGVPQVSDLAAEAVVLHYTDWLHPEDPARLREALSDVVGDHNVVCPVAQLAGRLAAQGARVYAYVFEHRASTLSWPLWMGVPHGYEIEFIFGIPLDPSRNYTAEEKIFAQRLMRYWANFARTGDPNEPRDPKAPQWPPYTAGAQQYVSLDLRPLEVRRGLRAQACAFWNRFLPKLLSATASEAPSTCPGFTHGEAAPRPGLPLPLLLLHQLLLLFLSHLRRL

On to `O=C(NCc1ccc(F)cc1)c1ccc(CN2CCc3ccccc3C2)cc1` [Compound 19, 4-((3,4-dihydroisoquinolin-2(1H)-yl)methyl)-N-(4-fluorobenzyl)benzamide], for which the “AChE IR (%) inhibition ratio” value in assay [1] amounted to 2.3%. In assay [2], the “BChE IR (%) inhibition ratio” value is on record as 83.9% and it took 14.8 ± 0.58 µM to reach half-maximal inhibition (IC50).

Regarding `Cc1ccc2[nH]cc(CCNC(=O)c3ccc(CN4CCc5ccccc5C4)cc3)c2c1` [Compound 29, 4-((3,4-dihydroisoquinolin-2(1H)-yl)methyl)-N-(2-(5-methyl-1H-indol-3-yl)ethyl)benzamide], the “AChE IR (%) inhibition ratio” value in assay [1] worked out at 4.6%. Besides, the “BChE IR (%) inhibition ratio” value in assay [2] came out at 6.5%.

Regarding `CCNCCNC(=O)c1ccc(CN2CCc3ccccc3C2)cc1` [Compound 4, 4-((3,4-dihydroisoquinolin-2(1H)-yl)methyl)-N-(2-(ethylamino)ethyl)benzamide], the “AChE IR (%) inhibition ratio” value in assay [1] was 8.8%. Also, in assay [2], the “BChE IR (%) inhibition ratio” value is 27.2%.

In the case of `O=C(Sc1ccccc1Br)c1ccc(CN2CCc3ccccc3C2)cc1` [Compound 27, S-(2-bromophenyl) 4-((3,4-dihydroisoquinolin-2(1H)-yl)methyl)benzothioate], the “AChE IR (%) inhibition ratio” value in assay [1] came to 22.8%. For the same compound, the “BChE IR (%) inhibition ratio” value in assay [2] turned out to be 1.5%.

Regarding `O=C(Nc1cccc(Br)c1)c1ccc(CN2CCc3ccccc3C2)cc1` [Compound 24, N-(3-bromophenyl)-4-((3,4-dihydroisoquinolin-2(1H)-yl)methyl)benzamide], in assay [1], the “AChE IR (%) inhibition ratio” value is 21.6%. The “BChE IR (%) inhibition ratio” value in assay [2] was 35.1%.

Take `O=C(Nc1ccccc1F)c1ccc(CN2CCc3ccccc3C2)cc1` [Compound 16, 4-((3,4-dihydroisoquinolin-2(1H)-yl)methyl)-N-(2-fluorophenyl)benzamide]: in assay [1], the “AChE IR (%) inhibition ratio” value was 2.1%. In addition, in assay [2], the “BChE IR (%) inhibition ratio” value was determined as 74.7%; the 50% inhibitory concentration (IC50) was 6.9 µM and 6.93 µM.

Turning to `COC(CNC(=O)c1ccc(CN2CCc3ccccc3C2)cc1)OC` [Compound 5, 4-((3,4-dihydroisoquinolin-2(1H)-yl)methyl)-N-(2,2-dimethoxyethyl)benzamide], the “AChE IR (%) inhibition ratio” value in assay [1] came out at 2.7%. Further, in assay [2], the “BChE IR (%) inhibition ratio” value was 56.6% and the half-inhibitory concentration (IC50) is 38.1 ± 1.68 µM.

Consider `CCN1CCCC1CNC(=O)c1ccc(CN2CCc3ccccc3C2)cc1` (stereo not drawn) [Compound 8, 4-((3,4-dihydroisoquinolin-2(1H)-yl)methyl)-N-((1-ethylpyrrolidin-2-yl)methyl)benzamide], for which the “AChE IR (%) inhibition ratio” value in assay [1] came out at 13.3%. Also, in assay [2], the “BChE IR (%) inhibition ratio” value came out at 63.0% and the IC50 is 25 ± 1.27 µM.

Regarding `O=C(Nc1ccccc1)c1ccc(CN2CCc3ccccc3C2)cc1` [Compound 15, 4-((3,4-dihydroisoquinolin-2(1H)-yl)methyl)-N-phenylbenzamide], the “AChE IR (%) inhibition ratio” value in assay [1] is 8%. The “BChE IR (%) inhibition ratio” value in assay [2] is 23.7%.

For the compound `O=C(Oc1ccccc1Br)c1ccc(CN2CCc3ccccc3C2)cc1` [Compound 26, 2-bromophenyl 4-((3,4-dihydroisoquinolin-2(1H)-yl)methyl)benzoate], the “AChE IR (%) inhibition ratio” value in assay [1] came to 26.2%. Also, the “BChE IR (%) inhibition ratio” value in assay [2] was 11%.

For `O=C(Nc1ccc(F)cc1)c1ccc(CN2CCc3ccccc3C2)cc1` [Compound 18, 4-((3,4-dihydroisoquinolin-2(1H)-yl)methyl)-N-(4-fluorophenyl)benzamide], the “AChE IR (%) inhibition ratio” value in assay [1] amounted to 7.0%. Also, in assay [2], the “BChE IR (%) inhibition ratio” value is given as 14.1%.

As for `O=C(NNc1ccc(F)cc1)c1ccc(CN2CCc3ccccc3C2)cc1` [Compound 20, 4-((3,4-dihydroisoquinolin-2(1H)-yl)methyl)-N2019-(4-fluorophenyl)benzohydrazide], the “AChE IR (%) inhibition ratio” value in assay [1] was 21.8%. In addition, in assay [2], the “BChE IR (%) inhibition ratio” value turned out to be 13.2%.

`COc1cc2c(cc1OC)CN(Cc1ccc(C(=O)N3CCCC3)cc1)CC2` [Compound 14, (4-((6,7-dimethoxy-3,4-dihydroisoquinolin-2(1H)-yl)methyl)phenyl)(pyrrolidin-1-yl)methanone]: in assay [1], 18.2 ± 0.86 µM corresponded to half-maximal inhibition (IC50).

Turning to `O=C(Nc1ccc(Br)cc1F)c1ccc(CN2CCc3ccccc3C2)cc1` [Compound 22, N-(4-bromo-2-fluorophenyl)-4-((3,4-dihydroisoquinolin-2(1H)-yl)methyl)benzamide], the “AChE IR (%) inhibition ratio” value in assay [1] turned out to be 28.3%. For the same compound, the “BChE IR (%) inhibition ratio” value in assay [2] was 15.4%.

`CC(C)N(CCNC(=O)c1ccc(CN2CCc3ccccc3C2)cc1)C(C)C` [Compound 2, 4-((3,4-dihydroisoquinolin-2(1H)-yl)methyl)-N-(2-(diisopropylamino)ethyl)benzamide]: in assay [1], the “AChE IR (%) inhibition ratio” value is reported as 56.1% and the IC50 was 21.5 ± 0.98 µM. In addition, in assay [2], the “BChE IR (%) inhibition ratio” value is 76.4% and inhibition was half-maximal at 9.98 ± 0.89 µM (IC50).

Regarding `CCN(CC)CCNC(=O)c1ccc(CN2CCc3ccccc3C2)cc1` [Compound 1, N-(2-(diethylamino)ethyl)-4-((3,4-dihydroisoquinolin-2(1H)-yl)methyl)benzamide], in assay [1], the “AChE IR (%) inhibition ratio” value came out at 26.6% and the half-inhibitory concentration (IC50) is > 50 µM. In assay [2], the “BChE IR (%) inhibition ratio” value worked out at 68.4% and 17.9 µM corresponded to half-maximal inhibition (IC50).

`O=C(c1ccc(CN2CCc3cc(Br)ccc3C2)cc1)N1CCCC1` [Compound 11, (4-((6-bromo-3,4-dihydroisoquinolin-2(1H)-yl)methyl)phenyl)(pyrrolidin-1-yl)methanone]: the figures for the IC50 in assay [1] and in assay [2] were 30.6 ± 1.82 µM and 8.38 ± 0.65 µM, respectively.

As to `O=C(NCCN1CCOCC1)c1ccc(CN2CCc3ccccc3C2)cc1` [Compound 6, 4-((3,4-dihydroisoquinolin-2(1H)-yl)methyl)-N-(2-morpholinoethyl)benzamide], the “AChE IR (%) inhibition ratio” value in assay [1] stood at 13.4%. In addition, the “BChE IR (%) inhibition ratio” value in assay [2] stood at 19.1%.

Take `CN(C)CCNC(=O)c1ccc(CN2CCc3ccccc3C2)cc1` [Compound 3, 4-((3,4-dihydroisoquinolin-2(1H)-yl)methyl)-N-(2-(dimethylamino)ethyl)benzamide]: the “AChE IR (%) inhibition ratio” value in assay [1] was determined as 11.4%. Besides, the “BChE IR (%) inhibition ratio” value in assay [2] is 36.9%.

Regarding `O=C(NCCc1c[nH]c2ccccc12)c1ccc(CN2CCc3ccccc3C2)cc1` [Compound 28, N-(2-(1H-indol-3-yl)ethyl)-4-((3,4-dihydroisoquinolin-2(1H)-yl)methyl)benzamide], the “AChE IR (%) inhibition ratio” value in assay [1] worked out at 8.4%. Also, the “BChE IR (%) inhibition ratio” value in assay [2] came out at 1.3%.

As for `COc1ccc2[nH]cc(CCNC(=O)c3ccc(CN4CCc5ccccc5C4)cc3)c2c1` [Compound 30, 4-((3,4-dihydroisoquinolin-2(1H)-yl)methyl)-N-(2-(5-methoxy-1H-indol-3-yl)ethyl)benzamide], the “AChE IR (%) inhibition ratio” value in assay [1] is recorded as 8.3%. In addition, in assay [2], the “BChE IR (%) inhibition ratio” value stood at 1.1%.

As to `O=C(c1ccc(CN2CCc3ccccc3C2)cc1)N1CCOCC1` [Compound 10, (4-((3,4-dihydroisoquinolin-2(1H)-yl)methyl)phenyl)(morpholino)methanone], the “AChE IR (%) inhibition ratio” value in assay [1] is 3.4%. Moreover, in assay [2], the “BChE IR (%) inhibition ratio” value stood at 11.2%.

On to `O=C(Nc1cccc(F)c1)c1ccc(CN2CCc3ccccc3C2)cc1` [Compound 17, 4-((3,4-dihydroisoquinolin-2(1H)-yl)methyl)-N-(3-fluorophenyl)benzamide], for which the “AChE IR (%) inhibition ratio” value in assay [1] came out at 7.7%. Besides, the “BChE IR (%) inhibition ratio” value in assay [2] stood at 10.0%.

Turning to `COc1ccc2c(c1)CCN(Cc1ccc(C(=O)N3CCCC3)cc1)C2` [Compound 13, (4-((6-methoxy-3,4-dihydroisoquinolin-2(1H)-yl)methyl)phenyl)(pyrrolidin-1-yl)methanone], the half-inhibitory concentration (IC50) in assay [1] is 12.1 ± 0.9 µM; in assay [2] it was 12.6 ± 0.88 µM.

On to `O=C(Nc1ccc(Br)cc1)c1ccc(CN2CCc3ccccc3C2)cc1` [Compound 25, N-(4-bromophenyl)-4-((3,4-dihydroisoquinolin-2(1H)-yl)methyl)benzamide], for which the “AChE IR (%) inhibition ratio” value in assay [1] turned out to be 40.6%. In addition, the “BChE IR (%) inhibition ratio” value in assay [2] amounted to 8.1%.

In the case of `O=C(c1ccc(CN2CCc3ccc(Br)cc3C2)cc1)N1CCCC1` [Compound 12, (4-((7-bromo-3,4-dihydroisoquinolin-2(1H)-yl)methyl)phenyl)(pyrrolidin-1-yl)methanone], the 50% inhibitory concentration (IC50) is > 50 µM in assay [1] and 39.4 ± 2.25 µM in assay [2].

As to `O=C(Nc1ccc(Cl)cc1F)c1ccc(CN2CCc3ccccc3C2)cc1` [Compound 21, N-(4-chloro-2-fluorophenyl)-4-((3,4-dihydroisoquinolin-2(1H)-yl)methyl)benzamide], in assay [1], the “AChE IR (%) inhibition ratio” value worked out at 5%. Moreover, the “BChE IR (%) inhibition ratio” value in assay [2] was determined as 38.6%.

Regarding `O=C(NCCN1CCCC1)c1ccc(CN2CCc3ccccc3C2)cc1` [Compound 7, 4-((3,4-dihydroisoquinolin-2(1H)-yl)methyl)-N-(2-(pyrrolidin-1-yl)ethyl)benzamide], the “AChE IR (%) inhibition ratio” value in assay [1] came out at 4.4%. This compound returned an IC50 in assay [2] of 15.2 ± 2.33 µM.
